Experimental data as given in paper PMC4603705, “A bioinspired peptide scaffold with high antibiotic activity and low in vivo toxicity” (Scientific Reports, 2015).
Values after ≈ are worked out from the molar mass of the structure shown. Bridge positions count the residues as written; N and C are the ends. Square brackets hold non-standard residues; d marks the D form. Peptide text beside a SMILES is read from it. * marks the point of attachment. X1 = CC[C@H](C)CCCCC(=O)*; Dab = NCC[C@H](N)C(=O)O

What was measured:
[1] = test system: CD-1 mice; conditions: reported value, no reference given; cited from earlier work
[2] = test system: E. coli
Protocol: (§1) Strains of E. coli and P. aeruginosa with resistance to quinolones and carbapenems as well as multi-drug-resistant bacteria were tested.
(§2) MICs were measured after 18–20 h of incubation in sterile 96-well plates (Corning Costar 3598 microtiter plates) in Mueller Hinton Broth (MHB) culture medium, (Difco, USA), according to well known in vitro protocols. Bacterial strains in Table 1 were: P. aeruginosa ATTC 9027, E. coli ATTC 8739, S. aureus ATTC 6538, and E. faecalis ATTC 29212. MICs shown in table 4 were performed by Mary Conrad at Cubist Pharmaceuticals (Lexington, MA) in non-binding surface plates.

[3] = test system: P. aeruginosa
Protocol: as §1, §2

[4] = test system: S. aureus ATTC 6538; experiment: microbe, parasite or virus in culture; type: cell-based, Staphylococcus aureus; conditions: S. aureus ATTC 6538; Mueller Hinton Broth, 18–20 h
In short: (§3)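 MIC determined by broth microdilution in Mueller Hinton Broth, read after 18–20 h incubation. Part of the MIC testing was run in non-binding surface plates.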

[5] = target: alternative NADH dehydrogenase; set-up: method as in PMID 19564154, PMID 24169795; conditions: Mycobacterium smegmatis; cited from earlier work
[6] = test system: E. coli (ATCC 25922); experiment: Transmission electron microscopy of treated E. coli; type: cell-based, Escherichia coli; conditions: 120 min at 0.5 μg/mL
Protocol: An overnight culture (12 to 16 h) of S. aureus (ATCC 29213) or E. coli (ATCC 25922) in Tryptic Soy Broth (TSB) was grown at 37 °C and 500 μL were added in 50 mL of tryptone water (∼10^8 bacteria/mL). […] Cells were collected by centrifugation (10000 rpm, 20 min).
Samples were fixed with 2.5% glutaraldehyde in phosphate buffer for 2 h at 4 °C, then washed with the same buffer and post fixed with 1% osmium tetroxide in buffer containing 0.8% potassium ferricyanide at 4 °C. The samples were then dehydrated for 1 hour in acetone and infiltrated in a gradded series of Epon resin (Ted Pella Inc., USA) during 2 days, and finally embedded in fresh Epon resin and polymerised at 60 °C during 48 hours.
Ultrathin sections were obtained using a Leica Ultracut UCT ultramicrotome (Leica, Vienna) and mounted on Formvar-coated copper grids. Sections were stained with 2% aqueous uranyl acetate and lead citrate and examined in a JEM-1010 electron microscope (Jeol, Japan).

[7] = test system: E. coli (ATCC 25922); experiment: Flow cytometry (PI membrane permeability, BOX membrane potential), E. coli; type: cell-based, Escherichia coli; conditions: 0.5 μg/mL
Protocol: The mechanism of action at the membrane level of our best candidate was studied using flow cytometry. To assess membrane permeability, a propidium iodide (PI) probe was used[43][44]. The fluorescence conferred by this probe is generally associated with cells that have lost their membrane integrity. The effect on membrane potential was evaluated with bis-(1,3-dibutylbarbituric acid) trimethine oxonol (BOX). Membrane depolarization leads to the incorporation of this anionic dye into the cell where it binds to lipid-rich intracellular compounds, resulting in an increase in fluorescence.
(§4) An overnight culture (12 to 16 h) of S. aureus (ATCC 29213) or E. coli (ATCC 25922) in Tryptic Soy Broth (TSB) was grown at 37 °C and 400 μL were added in 50 mL of tryptone water (∼10^7 bacteria/mL). The bacterial suspension was split into aliquots of 4-5 mL and treated with the peptides (at the MIC) for different incubation times at room temperature. Cells were collected by centrifugation (10000 rpm, 20 min) and resuspended in 1 mL of filtered Ringer’s solution.
A stock solution of propidium iodide (PI, 1 mg/mL, Molecular Probes) and bis-(1,3-dibutylbarbituric acid) trimethine oxonol (BOX, 250 μM, Sigma Aldrich) was prepared in distilled water. Portions (10 μL and 2 μL, respectively) were added to aliquots of cells (100 μL of each sample in 1 mL of Ringer’s solution) to give a final concentration of 10 μg/mL of PI and 0.5 μM for BOX.
Flow cytometric measurements were performed on a Gallios multi-colour flow cytometer instrument (Beckman Coulter, Inc, Fullerton, CA) set up with the 3-lasers 10 colors standard configuration. Excitation was done using a blue (488 nm) laser. Forward scatter (FS), side scatter (SS), green fluorescence (525/40 nm) from BOX and red fluorescence (620/30 nm) emitted by PI were collected using logarithmic scales. FS was used as the discriminating parameter. The single-cell bacterial population was selected on a forward-side scatter plot. Fluorescence was presented in a dot plot of BOX vs. PI. Three regions were defined on this graph according to the controls: depolarized, permeabilized and non-affected cells. Control cells (non-stained and single stained populations) were used to define these regions. 25,000 cells defined according to their scatter parameters were counted in each sample.

[8] = test system: P. aeruginosa ATTC 9027; type: cell-based, Pseudomonas aeruginosa; conditions: P. aeruginosa ATTC 9027; Mueller Hinton Broth, 18–20 h
In short: as §3

[9] = target: malate:quinone oxidoreductase; set-up: method as in PMID 19564154; conditions: Mycobacterium smegmatis; cited from earlier work
[10] = test system: E. coli ATTC 8739; type: cell-based, Escherichia coli; conditions: E. coli ATTC 8739; Mueller Hinton Broth, 18–20 h
In short: as §3

[11] = test system: E. coli (ATCC 25922); experiment: Reduction of viability by plate count, E. coli; type: cell-based, Escherichia coli; conditions: 0.5 μg/mL
Protocol: as §4

[12] = set-up: method as in PMID 22908162, PMID 24733472; conditions: after iv administration, after 6 h; cited from earlier work
[13] = resistant to nalidixic acid, cotrimoxazole and ampicillin

CC[C@H](C)CCCCC(=O)N[C@@H](CCN)C(=O)N[C@H](C(=O)N[C@@H](CCN)C(=O)N[C@H]1CCNC(=O)[C@H]([C@@H](C)O)NC(=O)[C@H](CCN)NC(=O)[C@H](CCN)NC(=O)[C@H](CC(C)C)NC(=O)[C@@H](Cc2ccccc2)NC(=O)[C@H](CCN)NC1=O)[C@@H](C)O [Polymyxin B] (X1-[Dab]T[Dab][Dab][Dab][dF]L[Dab][Dab]T; lactam 4-C; N-terminus assumed)
LD50 reported for subcutaneous administration [1]: 59.5 mg/kg | MIC E. coli NDM-1 ([2]; highly-resistant, New Delhi metallo-beta-lactamase gene): 0.5 µg/mL (≈ 0.415 µM) | MIC E. coli VAL 5 ([2]; resistant to nalidixic acid): 0.25 µg/mL (≈ 0.208 µM) | MIC E. coli MAC 21a [2, 13]: 0.25 µg/mL (≈ 0.208 µM) | MIC E. coli VAL 10 [2, 13]: 0.25 µg/mL (≈ 0.208 µM) | MIC P. aeruginosa 38a ([3]; resistant to ceftazidime, ciprofloxacin, imipenem, piperacillin-tazobactam): 1 µg/mL | MIC P. aeruginosa 40b ([3]; resistant to imipenem): 2 µg/mL (≈ 1.66 µM) | MIC S. aureus [4]: >32 µg/mL | IC50 alternative NADH dehydrogenase [5]: 1.6 µg/mL (≈ 1.33 µM) | Effect on cell morphology (TEM) [6]: numerous protrusions were observed at the outer cell membrane and even some completely lysed membranes | % of stained cells PI ([7]; 5 min): 11% | % of stained cells BOX ([7]; 10 min): 35% | % of stained cells PI ([7]; 10 min): 20% | % of stained cells BOX ([7]; 15 min): 17% | % of stained cells PI ([7]; 15 min): 60% | % of stained cells BOX ([7]; 30 min): 13% | % of stained cells PI ([7]; 30 min): 68% | % of stained cells BOX ([7]; 60 min): 23% | % of stained cells PI ([7]; 60 min): 57% | % of stained cells BOX ([7]; 120 min): 17% | MIC P. aeruginosa [8]: 2 µg/mL (≈ 1.66 µM) | IC50 malate:quinone oxidoreductase [9]: 4.3 µg/mL (≈ 3.57 µM) | MIC E. coli [10]: 1 µg/mL (≈ 0.831 µM) | % viability reduction ([11]; 5 min): 0% | % viability reduction ([11]; 10 min): 20% | % viability reduction ([11]; 15 min): 34% | % viability reduction ([11]; 30 min): 65% | % viability reduction ([11]; 60 min): 87% | % viability reduction ([11]; 120 min): 98% | kidney concentration relative to serum concentration [12]: more than 30 times
